Laboratory results from US6172205A, “Synthetic process toward total synthesis of eleutherobin and its analogues and uses thereof” (The Trustees of Columbia in the City of New York, priority 1998, dated 2001).
Entries after “also recorded” stand apart in the source; their conditions may differ.

Legend:
[1] = system: Human ovarian carcinoma cells SKOV3; test: Cytotoxicity by counting cells after 72 h, Taxol-sensitive cells; type: cell-based; conditions: SK-OV-3, 72 h
Experimental: (§1) Human non-small cell lung carcinoma cells, A549, were maintained in RPMI 1640 containing 10% fetal bovine serum and 1% penicillin-streptomycin (Gibco Laboratories, Grand Island N.Y.) at 37° C. in 7% CO2. The Taxol-resistant cell line A549-T12 was selected for resistance to Taxol and maintained in a final concentration of 12 nM drug (21). Human ovarian carcinoma cells SKOV3 and the MDR variant SKVBL (obtained from Dr. V. Ling) were maintained in α-mem plus ribonucleotides, deoxynucleotides, 15% fetal bovine serum and 1% penicillin-streptomycin (Gibco Laboratories) at 37° C. in 5% CO2. SKVBL cells were maintained in […] vinblastine (Sigma Chemical Co.).
(§2) Taxol-resistant and sensitive cell lines were seeded into 12-well plates at a density of 5×10^4 cells per well and allowed a period of 12 h for attachment prior to treatment. Cells were exposed to 10-fold serial dilutions of each compound (10^-10 to 10^-6 M) for 72 h. Cells were then trypsinized and counted (Coulter counter model ZF0031, Coulter Corp., Miami, Fla.). The IC50 was determined by plotting cell number against log of the drug concentration and this was used to determine the concentration of compound resulting in 50% growth inhibition compared to untreated cells. Each cell line was assayed in a minimum of 3 independent experiments with each compound and the results expressed as the mean IC50.
(§3) ^a Cytotoxicity determined by counting cells after 72 h drug exposure.

[2] = system: P-glycoprotein; test: P-glycoprotein substrate behaviour inferred from resistance of SKVBL cells; type: cell-based, human
Experimental: as §1, §2
(§4) The cytotoxic efficacy of eleutherobin and its derivatives (FIG. 6) was evaluated in two drug sensitive human cancer cell lines and their Taxol-resistant counterparts. The results are summarized in Table I in order of decreasing potency. […] The Taxol-resistant cell line SKVBL overexpresses high levels of P-glycoprotein (22). […] The only difference between the two agents is the enantiomeric relationship in the carbohydrate (2'-acetylarabinose) sector (FIG. 6). […] This cell line expressed high levels of MDR1 resulting in Taxol-resistance equal or greater than 1666 -fold compared to the Taxol-sensitive SKOV3 cell line.

[3] = system: cellular microtubules, NIH 3T3 cells; test: Microtubule bundle formation by immunofluorescence; type: cell-based; conditions: 2 μM, 5.5 h, 37 °C
Experimental: FIG. 9 immunofluorescence images NIH3T3 cells labeled with β-tubulin antibody following exposure to different drugs. A)DMSO; B)2 μM Taxol; C)2 μM eleutherobin; D)2 μM neo-eleutherobin; E)2 μM SKBII.294; F)2 μM SKBIII.13.
Illustrates the effects of eleutherobin and its derivatives on the morphology of cellular microtubules following exposure of cells to 2 μM of each compound for 5.5 h at 37° C. […] The number of micotic asters correlated with the extent of microtubule bundling in interphase cells.
(§5) NIH 3T3 cells were grown to subconfluency on glass converslips in 35 mm plastic petri dishes. Cells were exposed to 2 μM of Taxol and each of the experimental compounds for 5.5 h at 37° C., rinsed twice in PBS and extracted with 0.5% Triton-X-100 in microtubule stabilizing buffer (PEM) (100 mM PIPES, 2 mM EGTA and 2 mM MgCl2, pH 6.8) for 4 min. Following a wash in PEM, the cells were fixed for 40 min at room temperature in 3% formaldehyde in PEM followed by incubation in 0.1 M glycine in PBS for 10 min and washing (four times) in PEM containing 5 μM EGTA. Following blocking in 20% normal goat serum (NGS) for 30 min at room temperature, cells were incubated for 1 h at 37° C. with a 1:100 dilution of β-tubulin mAb diluted in 10% NGS, washed twice in 1% BSA, once in PBS and three times in 1% BSA. Cells were then incubated in a 1:200 dilution of the secondary fluorophore antibody, IndocarbocyanineCY3 (Jackson Immunoresearch Laboratories Inc., Pa.) in 20% NGS for 20 min at room temperature. Finally cells were washed three times in 1% BSA and the dried slides mounted in 30% glycerol in PBS containing […]-phenylene diamine (1 mg/ml). Fixed slides were examined using a Zeiss Axioskop microscope.

[4] = system: A549-T12 (Taxol-resistant A549); test: Cytotoxicity by counting cells after 72 h, Taxol-resistant cells; type: cell-based, human; conditions: for fold resistance relative to the parental cell line: A549-T12 vs A549, 4320 min; for IC50: Homo sapiens, Lung Carcinoma A549, Resistant (A549-T12), 72 h, mean of at least three independent experiments
Experimental: as §1, §2, §4, §3

[5] = system: SKVBL (MDR variant of SKOV3); test: Cytotoxicity by counting cells after 72 h, MDR variant cells; type: cell-based, human; conditions: for IC50: Homo sapiens, SK-OV-3, Ovarian Carcinoma SKOV3, Resistant (SKVBL), 72 h, mean of at least three independent experiments; for cross-resistance in SKVBL (in words): MDR1 expressing cells, high P-glycoprotein; for fold resistance relative to the parental cell line: SKVBL vs SKOV3
Experimental: as §1, §2, §4, §3

[6] = Solubility compared to eleutherobin; type: physicochemical
[7] = SKBII.294 and 298 structures compared; cited from earlier work
[8] = system: Human non-small cell lung carcinoma cells, A549; test: Cytotoxicity by counting cells after 72 h, Taxol-sensitive cells; type: cell-based; conditions: for IC50: Homo sapiens, A549, 72 h; for cytotoxicity (in words): sensitive cell lines (A549, SKOV3)
Experimental: Taxol-resistant and sensitive cell lines were seeded into 12-well plates at a density of 5×10^4 cells per well and allowed a period of 12 h for attachment prior to treatment. […] Cells were then trypsinized and counted (Coulter counter model ZF0031, Coulter Corp., Miami, Fla.).

[9] = system: tubulin / microtubule protein; test: Tubulin polymerization by turbidity at 350 nm in the absence of GTP; type: biochemical, calf; conditions: 10 μM, relative to eleutherobin
Experimental: Eleutherobin and its derivatives were synthesized as described (18,19). Taxol was obtained from the Drug Development Branch, National Cancer Institute (Bethesda, Md.). All compounds were dissolved in dimethyl sulfoxide (Sigma Chemical Co., St. Louis, Mo.) at stock concentrations of 5 mM and stored at -20° C. All control samples contained an equal volume of DMSO. GTP was obtained from Sigma Chemical Co. And dissolved in sterile distilled water at a concentration of 10 mM and stored at -20° C. Microtubule protein was purified from calf brains by two cycles of temperature-dependent assembly and disassembly (20) and stored in liquid nitrogen prior to use. The anti-mouse β-tubulin monoclonal antibody T-4026 was obtained from Sigma Chemical Co.
The ability of each compound to polymerize tubulin was evaluated by recording the change in turbidity of microtubule protein at 350 nm for 80 min in a spectrophotometer (UVIKON, Research Instruments Int., SD, Calif.). One mg of purified microtubule protein was diluted in assembly buffer containing 0.1 M MES, 1 mM EGTA, 0.5 mM MgCl2 and 3 M glycerol, pH 6.6. All compounds were evaluated at a concentration of 10 μM at 37° C. […] Microtubule stability was assessed by the addition of 10 mM Ca^++. changes from t=0-10 min were used to calculate initial slopes from the linear portion of each curve. These values were used to calculate the activity of each compound (relative to the activity of Taxol which was assigned a value of 100%).
The polymerization activity of these compounds was also assessed by determining the slope of the linear portion of each curve at A350 nm (t=0-10 min), and expressing this relative to Taxol (which was assigned a value of 100% (FIG. 8). The order of activity of eleutherobin and derivatives using this method, corroborates the results obtained from cytotoxicity studies.

[10] = Overall biological activity, all parameters tested
Experimental: as §2
The ability of each compound to polymerize tubulin was evaluated by recording the change in turbidity of microtubule protein at 350 nm for 80 min in a spectrophotometer (UVIKON, Research Instruments Int., SD, Calif.). One mg of purified microtubule protein was diluted in assembly buffer containing 0.1 M MES, 1 mM EGTA, 0.5 mM MgCl2 and 3 M glycerol, pH 6.6. All compounds were evaluated at a concentration of 10 μM at 37° C. GTP was used at a final concentration of 1 mM. Microtubule stability was assessed by the addition of 10 mM Ca^++. changes from t=0-10 min were used to calculate initial slopes from the linear portion of each curve. These values were used to calculate the activity of each compound (relative to the activity of Taxol which was assigned a value of 100%).
as §5

SMILES | IC50 [1] [nM] | P-glycoprotein substrate (in words) [2] | microtubule bundle formation (in words) [3] | fold resistance relative to the parental cell line [4] [fold] | IC50 [4] [nM] | IC50 [5] [nM] | cross-resistance in SKVBL (in words) [5] | fold resistance relative to the parental cell line [5] [fold] | solubility (in words) [6] | activity reported for compounds with the same structures (in words) [7] | IC50 [8] [nM] | cytotoxicity (in words) [8] | microtubule polymerization activity relative to eleutherobin [9] [%] | cross-resistance in A549-T12 (in words) ([4]; Taxol-resistant, not expressing P-glycoprotein) | biological activity (in words) [10]
CO[C@]12C=C[C@](C)(O1)[C@@H](OC(=O)/C=C/c1cn(C)cn1)C[C@H]1C(C)=CC[C@H](C(C)C)[C@H]1C=C2COC(C)=O [SKBII.294] | 307 | considerably less attractive for P-glycoprotein compared to eleutherobin and neo-eleutherobin | reduced bundle formation in cultured cells; also recorded: induced less bundle formation than neo-eleutherobin | 1.1 | 162 | 1040 | essentially not cross-resistant | 3.4 | reduced solubility compared to eleutherobin | equal activity | 152 | less cytotoxic than either eleutherobin or neo-eleutherobin; also recorded: more cytotoxic than to SKBII.296 | 54 |  | 
CO[C@]12C=C[C@@H]3[C@@H](C(C)C)CC=C(C)[C@@H]3C[C@H](OC(=O)/C=C/c3cn(C)cn3)[C@](C)(C=C1)O2 [SKBII.296] | 1630 | considerably less attractive for P-glycoprotein compared to eleutherobin and neo-eleutherobin | reduced bundle formation in cultured cells; also recorded: induced less bundle formation than neo-eleutherobin | 10 | 4000 | 1350 | no cross resistance to SKVBL cells | 0.8 | reduced solubility compared to eleutherobin |  | 400 | less cytotoxic than either eleutherobin or neo-eleutherobin | 54 | considerable cross-resistance | 
CO[C@]12C=C[C@](C)(O1)[C@@H](OC(=O)/C=C/c1cn(C)cn1)C[C@H]1C(C)=CC[C@H](C(C)C)[C@H]1C=C2CO [SKBII.298] | > 5000 |  | induced less bundle formation than neo-eleutherobin |  |  |  |  |  | reduced solubility compared to eleutherobin | equal activity | 1060 | considerably less cytotoxic (in the μM range) | 36 |  | the least active compound in this sub-group
